Test results: patent US6509377B1, “Use of a 2-hydroxy-4-trifluoromethylbenzoic acid derivatives as inhibitors of the activation of the nuclear transcription factor NF-κB” (J. Uriach & Cia, S.A., priority 1999, dated 2003)

What was measured:
Assay type in all cases: cell-based
NF-κB = assay: Activation of NF-κB induced by immune complexes in rat peritoneal macrophages (EMSA); conditions: 4 mM, 100 μg/ml IgG/ovalbumin, 2 hours
Description: Rat peritoneal cavity cells were extracted and resuspended in DMEM culture medium in the absence of serum previously supplemented with 100 U/ml penicillin, 100 μg/ml streptomycin, 50 μg/ml gentamycin, 2 mM glutamine and 0.5 mM L-arginine. Cells were incubated for 2 hours in culture plates at 37° C. and those which had not adhered to the plates were removed by washing three times with the same fresh medium. More than 95% of the adherent cells were macrophages, as assessed by their ability to engulf zymosan particles and nonspecific esterase staining. Macrophages were kept at 37° C. under a 5% CO2 atmosphere and two hours later non-adherent cells were removed and the peritoneal macrophages adhered to the plates were incubated with 100 μg/ml IgG/ovalbumin immune complexes prepared from; rabbit antiserum for 2 hours in the presence or absence (vehicle) of triflusal or HTB (4 mM, both).
After incubation, macrophages were washed twice with PBS and the degree of activation (binding to DNA) of the transcription factor NF-κB was determined using the EMSA assay, described in detail in Example 1.

COX-2 = assay: PGE2 production induced by LPS in human PBMC (ELISA); conditions: LPS 10 μg/ml, 19 hours, 0.1-5 mM
Description: Mononuclear cells (PBMC) were obtained from blood of healthy donors from the Hospital de Sant Pau, (Barcelona) who had not taken any antiinflammatory drug during a period of not less than 2 weeks before blood extraction. Starting from a volume of about 80 ml of heparinized human blood (10 U/ml), this was diluted (1:1) with PBS (pH 7.4; Dulbecco) without calcium, magnesium nor sodium bicarbonate. 15 ml of Ficoll solution (d=1.077 at 20° C.; Biochrom KG) were placed in 50-ml Falcon tubes. To this solution a volume of about 25 ml per tube of the blood previously diluted with PBS was carefully added and the tubes were then centrifuged at 1,200 g for 20 minutes. Mononudear cells concentrate on a whitish interphase between the plasma and the Ficoll solution. This interphase was collected with a Pasteur pipette and was diluted 1:1 with PBS. It was then centrifuged at 300 g, 10 min. The resulting pellet was resuspended in 50 ml PBS and was again centrifuged at 200 g for 10 min in order to remove platelet contamination. Finally, the resulting pellet was resuspended in 20 ml RPMI-1640 culture medium (GibcoBRL) supplemented with 10% fetal calf serum. […]
Finally, the supernatants from each experiment that had been stored at −70° C. were defrozen and the amount of PGE2 in solution was determined using specific ELISA kits (Amershan-Biotrak RPN22).

[1] = test system: cocultures of rat neurons and astrocytes; assay: Neuronal cell death in cocultures of neurons and astrocytes induced by oxygen-glucose deprivation (OGD); conditions: 4 h OGD, 24-hour recovery; triflusal 10 and 30 μg/ml; HTB 20 and 100 μg/ml
Description: To carry out this study, an in vitro model of neuronal ischemia based on cocultures of neurons and glial cells was used. Primary cultures of type 1 astrocytes were prepared from 1-day old Wistar rats. Astrocytes were plated onto 60 mm, poly-D-lysine-coated plates. These cells were allowed to grow until they were confluent (about 11 days) and then rat primary neurons were plated onto them and were allowed to grow for 10 days. In addition, separate cultures of each one of the two types of cells were prepared.
Half of the cultures were exposed for four hours to oxygenlucose deprivation (OGD), followed by a 24-hour recovery period. Both the cells exposed to OGD and control cells, were treated at the start of OGD with 0, 10 and 30 μg/ml triflusal in a series of experiments and with 0, 20 and 100 μg/ml HTB in another series. After the 24-hour recovery period, the release of lactate dehydrogenase (LDH) into the medium was determined as a measure of cellular death, as well as the degree of apoptosis in the cultures (using the TUNEL assay) and total neuron and astrocyte counts present in the coculture (using Hoescht staining).

Row | Structure (SMILES) | inhibition of the activation of NF-κB induced by immune complexes (NF-κB) | inhibition of PGE2 production (COX-2) | increase in LDH release induced by OGD [1] | increase in number of apoptotic neurons induced by OGD (TUNEL) [1]
1 | O=C(O)c1ccc(C(F)(F)F)cc1O [HTB, 2-hydroxy-4-trifluoromethylbenzoic acid] | markedly inhibit | concentration-dependently inhibit | completely inhibited | completely inhibited
2 | CC(=O)Oc1cc(C(F)(F)F)ccc1C(=O)O [triflusal, 2-Acetyloxy-4-trifluoromethylbenzoic acid, reference compound] | markedly inhibit | concentration-dependently inhibit | completely inhibited | completely inhibited
